Assay results reported in patent US20240327374A1, “LENALIDOMIDE PROCESS” (priority 2023, published 2024).

Legend:
Assay type in all cases: physicochemical
[1] = Six months stability of crystalline Form SRA: moisture content by KF method
Description: (§1) Inventors of the present application performed six months stability for the novel crystalline Form SRA according to the following temperature and relative humidity conditions: […]

[2] = Six months stability of crystalline Form SRA: assay / purity by HPLC
Description: as §1

[3] = Six months stability of crystalline Form SRA: comparative XRPD pattern (polymorphic stability); settings: after 6 months under 25° C.±2/65±5% RH and 40° C.±2/75±5% RH
Description: as §1

Nc1cccc2c1CN(C1CCC(=O)NC1=O)C2=O (stereo not shown) [Form SRA, 3-(7-amino-3-oxo-1H-isoindol-2-yl) piperidine-2,6-dione]
Moisture Content (by KF method) Not more than 0.5% w/w ([1]; A = 25° C.±2/65±5% RH, 1M): 0.22 % w/w | Moisture Content (by KF method) Not more than 0.5% w/w ([1]; A = 25° C.±2/65±5% RH, 2M): 0.22 % w/w | Moisture Content (by KF method) Not more than 0.5% w/w ([1]; A = 25° C.±2/65±5% RH, 3M): 0.23 % w/w | Moisture Content (by KF method) Not more than 0.5% w/w ([1]; A = 25° C.±2/65±5% RH, 6M): 0.23 % w/w | Moisture Content (by KF method) Not more than 0.5% w/w ([1]; A = 25° C.±2/65±5% RH, Initial): 0.23 % w/w | Moisture Content (by KF method) Not more than 0.5% w/w ([1]; B = 40° C.±2/75±5% RH, 1M): 0.21 % w/w | Moisture Content (by KF method) Not more than 0.5% w/w ([1]; B = 40° C.±2/75±5% RH, 2M): 0.22 % w/w | Moisture Content (by KF method) Not more than 0.5% w/w ([1]; B = 40° C.±2/75±5% RH, 3M): 0.22 % w/w | Moisture Content (by KF method) Not more than 0.5% w/w ([1]; B = 40° C.±2/75±5% RH, 6M): 0.22 % w/w | Moisture Content (by KF method) Not more than 0.5% w/w ([1]; B = 40° C.±2/75±5% RH, Initial): 0.23 % w/w | Assay (by HPLC; on anhydrous basis) Between 98.0 to 102.0% w/w ([2]; A = 25° C.±2/65±5% RH, 1M): 99.50 % w/w | Assay (by HPLC; on anhydrous basis) Between 98.0 to 102.0% w/w ([2]; A = 25° C.±2/65±5% RH, 2M): 99.41 % w/w | Assay (by HPLC; on anhydrous basis) Between 98.0 to 102.0% w/w ([2]; A = 25° C.±2/65±5% RH, 3M): 99.55 % w/w | Assay (by HPLC; on anhydrous basis) Between 98.0 to 102.0% w/w ([2]; A = 25° C.±2/65±5% RH, 6M): 99.47 % w/w | Assay (by HPLC; on anhydrous basis) Between 98.0 to 102.0% w/w ([2]; A = 25° C.±2/65±5% RH, Initial): 100.38 % w/w | Assay (by HPLC; on anhydrous basis) Between 98.0 to 102.0% w/w ([2]; B = 40° C.±2/75±5% RH, 1M): 99.77 % w/w | Assay (by HPLC; on anhydrous basis) Between 98.0 to 102.0% w/w ([2]; B = 40° C.±2/75±5% RH, 2M): 99.64 % w/w | Assay (by HPLC; on anhydrous basis) Between 98.0 to 102.0% w/w ([2]; B = 40° C.±2/75±5% RH, 3M): 100.02 % w/w | Assay (by HPLC; on anhydrous basis) Between 98.0 to 102.0% w/w ([2]; B = 40° C.±2/75±5% RH, 6M): 99.47 % w/w | Assay (by HPLC; on anhydrous basis) Between 98.0 to 102.0% w/w ([2]; B = 40° C.±2/75±5% RH, Initial): 100.38 % w/w | HPLC purity retained in the stability study ([2]; six months stability study): exceeding 99.9 % w/w by HPLC | Crystalline form by comparative XRPD, initial stage vs after stability [3]: crystalline form remains unchanged
